From ChEMBL document CHEMBL1137793, “Synthesis and biological activity of analogs of fecapentaene-12” (J Nat Prod, 1987)

Legend:
Conditions in all cases: salmonella enterica subsp. enterica serovar typhimurium
Salmonella typhimurium [1] = assay: Mutagenic activity in Salmonella Typhimurium TA100 assessed as number of revertant colonies at 156 ng/plate after 48 hrs by Ames assay; format: toxicity, organism-based
Salmonella typhimurium [2] = assay: Mutagenic activity in Salmonella Typhimurium TA100 assessed as number of revertant colonies at 313 ng/plate after 48 hrs by Ames assay; format: toxicity, organism-based
Salmonella typhimurium [3] = assay: Toxicity in Salmonella Typhimurium TA98 at 5000 ng/plate after 48 hrs by Ames assay; format: organism-based
Salmonella typhimurium [4] = assay: Toxicity in Salmonella Typhimurium TA100 at 10000 ng/plate after 48 hrs by Ames assay; format: organism-based
Salmonella typhimurium [5] = assay: Toxicity in Salmonella Typhimurium TA100 at 2500 ng/plate after 48 hrs by Ames assay; format: organism-based
Salmonella typhimurium [6] = assay: Toxicity in Salmonella Typhimurium TA98 at 10000 ng/plate after 48 hrs by Ames assay; format: organism-based
Salmonella typhimurium [7] = assay: Mutagenic activity in Salmonella Typhimurium TA100 assessed as number of revertant colonies at 78 ng/plate after 48 hrs by Ames assay; format: toxicity, organism-based
Salmonella typhimurium [8] = assay: Mutagenic activity in Salmonella Typhimurium TA100 assessed as number of revertant colonies at 36 ng/plate after 48 hrs by Ames assay; format: toxicity, organism-based
Salmonella typhimurium [9] = assay: Toxicity in Salmonella Typhimurium TA100 at 5000 ng/plate after 48 hrs by Ames assay; format: organism-based
Salmonella typhimurium [10] = assay: Mutagenic activity in Salmonella Typhimurium TA100 assessed as number of revertant colonies at 50000 ng/plate after 48 hrs by Ames assay; format: toxicity, organism-based
Salmonella typhimurium [11] = assay: Mutagenic activity in aldehyde-sensitive Salmonella Typhimurium TA104 assessed as number of revertant colonies at 100000 ng/plate after 48 hrs by Ames assay; format: toxicity, organism-based
Salmonella typhimurium [12] = assay: Mutagenic activity in Salmonella Typhimurium TA98 assessed as number of revertant colonies at 50000 ng/plate after 48 hrs by Ames assay; format: toxicity, organism-based
Salmonella typhimurium [13] = assay: Mutagenic activity in Salmonella Typhimurium TA100 assessed as number of revertant colonies at 25000 ng/plate after 48 hrs by Ames assay; format: toxicity, organism-based
Salmonella typhimurium [14] = assay: Mutagenic activity in aldehyde-sensitive Salmonella Typhimurium TA104 assessed as number of revertant colonies at 50000 ng/plate after 48 hrs by Ames assay; format: toxicity, organism-based
Salmonella typhimurium [15] = assay: Mutagenic activity in Salmonella Typhimurium TA100 assessed as number of revertant colonies at 100000 ng/plate after 48 hrs by Ames assay; format: toxicity, organism-based
Salmonella typhimurium [16] = assay: Mutagenic activity in aldehyde-sensitive Salmonella Typhimurium TA104 assessed as number of revertant colonies at 25000 ng/plate after 48 hrs by Ames assay; format: toxicity, organism-based
Salmonella typhimurium [17] = assay: Mutagenic activity in Salmonella Typhimurium TA98 assessed as number of revertant colonies at 100000 ng/plate after 48 hrs by Ames assay; format: toxicity, organism-based
Salmonella typhimurium [18] = assay: Toxicity in aldehyde-sensitive Salmonella Typhimurium TA104 at 5000 ng/plate after 48 hrs by Ames assay; format: organism-based
Salmonella typhimurium [19] = assay: Toxicity in aldehyde-sensitive Salmonella Typhimurium TA104 at 10000 ng/plate after 48 hrs by Ames assay; format: organism-based
Salmonella typhimurium [20] = assay: Toxicity in aldehyde-sensitive Salmonella Typhimurium TA104 at 2500 ng/plate after 48 hrs by Ames assay; format: organism-based

SMILES	Activity (Salmonella typhimurium [1])	Activity (Salmonella typhimurium [2])	Activity (Salmonella typhimurium [3])	Activity (Salmonella typhimurium [4])	Activity (Salmonella typhimurium [5])	Activity (Salmonella typhimurium [6])	Activity (Salmonella typhimurium [7])	Activity (Salmonella typhimurium [8])	Activity (Salmonella typhimurium [9])	Activity (Salmonella typhimurium [10])	Activity (Salmonella typhimurium [11])	Activity (Salmonella typhimurium [12])	Activity (Salmonella typhimurium [13])	Activity (Salmonella typhimurium [14])	Activity (Salmonella typhimurium [15])	Activity (Salmonella typhimurium [16])	Activity (Salmonella typhimurium [17])	Activity (Salmonella typhimurium [18])	Activity (Salmonella typhimurium [19])	Activity (Salmonella typhimurium [20])
CC/C=C/C=C/C=C/C=C/C=C/OC[C@@H](O)CO	459	612	Toxic	Toxic	Toxic	Toxic	306	187	Toxic	–	–	–	–	–	–	–	–	–	–	–
CC/C=C/C=C/C=C/C=C/C=O	–	–	–	–	–	–	–	–	–	187	181	24	185	186	221	165	23	–	–	–
CC/C=C/C=C/C=C/C=C/C=C/OCC(O)CO (racemic)	561	799	Toxic	Toxic	Toxic	Toxic	204	184	Toxic	–	–	–	–	–	–	–	–	Toxic	Toxic	Toxic
